Assay results published in US12642808B2, “Methods of inhibiting Klebsiella pneumoniae carbapenemase-2” (priority 2023, dated 2026).
Read-outs that look alike come from different tables or passages of the source.

Legend:
[1] = tested on: Hvkp2 strain; assay: Treatment of mice infected with Hvkp2 strain; type: in vivo, ICR mice; conditions: monotherapy 16 mg/kg; for survival rate: after 24 hours of Hvkp2 infection, mice
Procedure: The experiment was conducted on mice infected with Hvkp2 strain for treatment. A total of 35 male ICR mice of SPF grade at four weeks old were selected and divided into seven groups. The […] were set as the saline control group, AN2718 monotherapy group (16 mg/kg), Meropenem monotherapy group (16 mg/kg), AN2718/Meropenem combination group 1 (8 mg/kg+8 mg/kg), AN2718/Meropenem combination group 2 (8 mg/kg+16 mg/kg), AN2718/Meropenem combination group 3 (16 mg/kg+8 mg/kg) and AN2718/Meropenem combination group 4 ([…]), respectively. First, incubate Hvkp2 overnight at 37° C., activate it, and resuspend it with physiological saline. Adjust the bacterial concentration to approximately 1×10^6 CFU/mL, spare. […]. Inject saline or medication 1 hours after infection. After 12 hours, the second dose of medication was administered for treatment, with a total of five injections and a time interval of 12 hours between each injection. Observe and count the survival status of each group of mice during the experiment.
This experiment used SPSS 20.0 software to statistically process and analyze the data represented by (X±SD). Multiple comparisons and one-way ANOVA were used to analyze and compare the data of each group. (P<0.05 indicates a significant difference, and P<0.01 indicates a highly significant difference).

[2] = tested on: KPC-74T; assay: Time sterilization (time-killing) curve; type: cell-based, Escherichia coli
Description: (§1) KPC-74T, carrying Escherichia coli containing KPC-2 plasmid, constructed by the laboratory; Hvkp, obtained through laboratory isolation; AN2718 purchased from Target Mol Technology Co., Ltd; BBLTM Mueller Hinton II Broth was purchased from BD Company in the United States; Meropenem was purchased from Meilun Biotechnology Co., Ltd; LB Broth was purchased from Qingdao High tech Industrial Park Haibo Biotechnology Co., Ltd; Enzyme marker (UV1900i, Shimadzu company);
Inoculate overnight cultured bacterial KPC-74T in a 1:10000 ratio onto MHB medium and incubate at 225 rpm at 37° C. for 2 hours (early exponential growth phase) or 5 hours (late exponential growth phase). After incubation, add the corresponding concentration of AN2718 or Meropenem solution and incubate it at 37° C. and 225 rpm. Set the time point to 0, 1, 3, 5, 7, and 24 hours. At each time point, absorb 100 μL bacterial solution, centrifuged at 10000 g rotating speed for 1 min, resuspended with PBS, diluted in ten fold gradient, and absorbed 10 μL of each gradient drops onto MHA plate. Place the plates in a 37° C. incubator for 24 hours and remove them. Count each plate and calculate the total bacterial count. Repeat the experiment three times.

[3] = molecular target: KPC-41 (Klebsiella pneumoniae, UniProt Q9F663); assay: Enzyme activity determination (nitrocefin hydrolysis); type: biochemical; conditions: read-out: semi-inhibitory concentration IC50 on KPC-41
[4] = molecular target: KPC-2 enzyme (Klebsiella pneumoniae, UniProt Q9F663); assay: as above; type: biochemical
Procedure: Enzyme activity was measured using a Shimadzu UV-1900i spectrophotometer in 50 mM phosphate buffer (pH 7.0) to measure the inhibitory effect. The total enzyme activity reaction system is 500 μL. The reaction temperature was set to 37° C., and 0.3 nM KPC-2 enzyme was pre-incubated with different concentrations of AN2718 in phosphate buffer (pH 7.0) for 5 minutes before adding 60 μL nitrocefin. Measure the hydrolysis inhibition effect of AN2718 on nitrocefin by detect change of absorbance. The 50% inhibition concentration is determined by the inhibition curve of the control activity percentage and inhibitor concentration. Repeat the experiment three times.

[5] = molecular target: KPC-93 (Klebsiella pneumoniae, UniProt Q9F663); assay: as above; type: biochemical; conditions: read-out: semi-inhibitory concentration IC50 for KPC-93
[6] = tested on: KPC-74T; assay: Chessboard minimum inhibitory concentration determination; type: cell-based, Escherichia coli; conditions: for MIC: Escherichia coli; for MIC value decreased: combined use of the two drugs versus alone
Description: as §1
This study referenced the standards of the Clinical and Laboratory Standards Institute (CLSI) in the United States and the laboratory's previous improvement methods and measured partial inhibitory concentrations through a chessboard test. Firstly, KPC-74T was activated, inoculated on Lysogeny broth, and cultured overnight at 37° C. Add 100 μL MHB medium to each well in a sterile 96 well plate; Then add AN2718 solution 100 μL to the first line and perform gradient dilution along the vertical axis. Then, add Meropenem solution to the first column and dilute it in a gradient along the abscissa. Finally, in addition to the negative control, add 100 μL of bacterial suspension ≈1×10^6 CFUs mL^−1. After completing the above operations, place the 96 well plate in a 37° C. constant temperature incubator and incubate for 18 hours. Observe the bacterial solution of each well under appropriate light, and observe the drug concentration corresponding to the complete absence of bacterial growth wells, which is MIC. Determine synergistic effects by calculating FIC. FIC can be calculated according to formula (1): […]
MICa is a separate MIC of compound a; MICab is the MIC of compound a combined with compound b; MICb is a separate MIC of compound b; MICba is the MIC of compound b combined with compound a; FICa is the FIC of compound a; FICb is the FIC of compound b. According to the standard definition, FICI≤0.5 is defined as synergy; 0.5<FICI≤1 is defined as an additive; […] is defined as no difference; FICI>4 is defined as an antagonistic effect.

KPC-93, sequence (Q9F663 25-293 limits assumed): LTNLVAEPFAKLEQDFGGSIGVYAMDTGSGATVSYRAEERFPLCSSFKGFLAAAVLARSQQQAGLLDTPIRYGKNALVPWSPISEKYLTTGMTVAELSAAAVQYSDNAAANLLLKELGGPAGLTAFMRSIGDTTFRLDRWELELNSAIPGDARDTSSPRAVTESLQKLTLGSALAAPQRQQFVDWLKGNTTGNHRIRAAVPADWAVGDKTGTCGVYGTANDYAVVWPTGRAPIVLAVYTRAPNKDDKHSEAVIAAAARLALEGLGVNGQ
KPC-2 enzyme, sequence (Q9F663 25-293 limits assumed): as above
KPC-41, sequence (Q9F663 1-268, added parts left off, change not shown, form open): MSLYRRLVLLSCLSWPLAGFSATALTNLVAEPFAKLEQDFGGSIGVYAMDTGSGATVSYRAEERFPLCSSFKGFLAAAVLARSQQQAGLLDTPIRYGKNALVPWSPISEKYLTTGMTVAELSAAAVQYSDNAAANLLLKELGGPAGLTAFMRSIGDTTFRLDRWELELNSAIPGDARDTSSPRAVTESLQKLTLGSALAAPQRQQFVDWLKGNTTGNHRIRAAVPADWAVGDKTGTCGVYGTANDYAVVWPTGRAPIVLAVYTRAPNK

OB1OCc2cc(Cl)ccc21 [AN2718, 5-chloro-1,3-dihydro-1-hydroxy-2,1-benzoxaborole]
survival rate [1]: 40% | survival rate versus Meropenem group ([1]; between 36h and 132h, mice infected with Hvkp2): significantly higher | effect on the growth of KPC-74T ([2]; AN2718 single use, up to 160 μM (26.88 μg/mL), within 24 hours): has no effect on the growth of KPC-74T | IC50 [3]: 370000 nM | IC50 [4]: 499 nM | IC50 [5]: 116 nM | MIC ([6]; 18 h, read-out: AN2718 S-MIC): 13.4 µg/mL | MIC value decreased ([6]; KPC-74T): four

C[C@@H](O)[C@H]1C(=O)N2C(C(=O)O)=C(S[C@@H]3CN[C@H](C(=O)N(C)C)C3)[C@H](C)[C@H]12 [Meropenem]
survival rate [1]: 20% | killing of bacteria within 24 h ([2]; Meropenem 4 μg/mL and 8 μg/mL with AN2718 40 μM): could not kill all bacteria | killing of bacteria within 24 h ([2]; Meropenem 4 μg/mL with AN2718 80 μM): can kill most of the bacteria | killing of bacteria within 24 h ([2]; Meropenem 4 μg/mL with AN2718 160 μM): can kill all bacteria | killing of bacteria within 24 h ([2]; Meropenem 128 μg/mL with AN2718 20 μM): all bacteria can be killed | number of colonies versus control group ([2]; Meropenem alone 2 μg/mL˜64 μg/mL, at 24 hours): no significant difference | effect on the growth of KPC-74T ([2]; Meropenem alone 2 μg/mL˜64 μg/mL, first 5 hours): a certain inhibitory effect | effect on the growth of KPC-74T ([2]; Meropenem alone 128 μg/mL): significant inhibitory effect | killing of bacteria within 24 h ([2]; Meropenem alone 128 μg/mL): still cannot kill all bacteria | killing of bacteria within 24 h ([2]; Meropenem remaining concentrations (above 4 μg/mL) with AN2718 80 μM): can still kill all the bacteria | killing of bacteria within 24 h ([2]; Meropenem rest concentrations (above 8 μg/mL) with AN2718 40 μM): could still effectively kill bacteria | FICI ([6]; AN2718 in combination with Meropenem, KPC-74T): 0.25 | Result ([6]; AN2718 in combination with Meropenem, KPC-74T, from FICI): synergy (FICI≤0.5 is defined as synergy) | MIC ([6]; read-out: Drug S-MIC): 64 µg/mL | MIC value decreased ([6]; KPC-74T): 1024 times
